# From a melting point compilation (Tetko et al.; mined from patent text by program, amines drawn as free bases though some values may be those of a salt)
row,Compound,melting point
1,CCN(C(=O)c1ccccc1C(=O)c1ccccc1)C(C)(C)CNS(=O)(=O)c1ccc(C)cc1,157 to 160 °C
2,COC(=O)C(C)(C)Sc1cccc(OCc2ccc(-c3ccc([N+](=O)[O-])cc3)o2)c1,81 to 82 °C
3,Cc1ccc2c(C3=C(c4cn(C)c5ccccc45)C(=O)NC3=O)cn(C)c2c1,264 to 266 °C
4,CC(C)C1C(CO)=C(c2ccc(F)cc2)C=CN1C12CC3CC(CC(C3)C1)C2 (stereo not given),143 to 145 °C
5,CCOc1cc2c(cc1OCC)C(C(S)(C#N)CCC(=O)O)=NCC2 (stereo not given),106 to 108 °C
6,CC1(C)COC(C=Cc2ccc([N+](=O)[O-])cc2)OC1,86.5 to 88.5 °C
7,Cc1c(C(=O)Nc2ccc(-c3ccc(S(=O)(=O)N(C)C(C(=O)O)C(C)C)cc3)cc2)oc2cccc(C(O)CO)c12 (stereo not given),222 to 225 °C
8,COc1ccc(CCCC(O)CCC(=O)O)cc1 (stereo not given),67 to 68 °C
9,CN1CCc2c(cccc2NC(=O)c2ccccc2Br)C1,206 to 208 °C
10,O=Cc1ccc(OCCCC(=O)O)c(Cl)c1,128 to 131 °C
11,Cc1ccc(N2CCCN(c3cc[nH]c(=S)c3C#N)CC2)cc1[N+](=O)[O-],277 to 278 °C
12,CCn1cc(-c2ccc(F)c(C)c2)nc1COCc1ccccc1,200 °C
13,CCOC(=O)c1cnn2c1nc(OCCC(C)C)c1cnc3c(cnn3CC)c12,117 to 118 °C
14,O=C(O)C1CCCCc2c(-c3ccc(Cl)cc3)noc2C1 (stereo not given),215 °C
15,CCCCc1nc2c(N)nc3cc(CCc4ccccc4)ccc3c2n1CC(C)C,181 to 182 °C
16,O=c1[nH]ccn1-c1ccc(F)cc1,166 to 167 °C
17,O=C(Cl)N1CCC(Oc2cc(Cl)cc(Cl)c2)C1 (stereo not given),105 to 107 °C
18,O=C1OC(Cc2ccccc2)CN1c1ccccc1 (stereo not given),90 °C
19,O=C(O)[C@@H]1CCCN1C(=O)c1cc2cc3c(cc2c2cc(O)ccc12)OCO3,230 to 231 °C
20,CC(=O)NC(=O)C(SCc1ccccc1)C(c1ccccc1)(c1ccccc1)c1ccccc1 (stereo not given),184 to 186 °C

row,Compound,melting point
1,O=C(O)COc1ccc(SCc2ccc(-c3ccc(C(F)(F)F)cn3)cc2)c2c1CCCO2,178 to 179 °C
2,Cn1c(-c2ccccc2)c2c(c(C#N)c1=O)-c1ccccc1C2=O,255 to 256 °C
3,COc1cccc(-c2cn3c(ccc4ccccc43)n2)c1,129 to 131 °C
4,NN(Cc1ccccc1[N+](=O)[O-])c1ccc(Cl)cc1,105 to 106 °C
5,N=C(Nc1ccc(Cl)cc1)Nc1ncccc1OCc1c(F)ccc(F)c1F,153 to 156 °C
6,COc1ccc([C@H](O)[C@@H](Cc2ccc(C(F)(F)F)cc2)C(=O)O)cc1 (racemic),113 to 114 °C
7,C1CCN(ON2CCCC2)C1,99 °C
8,Cc1cc(-c2nc(C)c(C)o2)cc(C)c1O,203 to 205 °C
9,CC(=O)COc1ccc(O)cc1,110 to 112 °C
10,Cc1sc(-c2ccccc2)nc1COc1ccc(C=O)cn1,120 to 121 °C
11,COCCc1nc2c(N)nc3cc(-c4ccccc4)ccc3c2n1CC(C)(C)O,226 to 227 °C
12,Clc1ccc2c(C3=CCN(CCCOc4cccc5[nH]ccc45)CC3)c[nH]c2c1Cl,224 to 227 °C
13,CCS(=O)(=O)Nc1cc(-n2c(=O)cc(C(F)(F)F)n(N)c2=O)c(F)cc1C#N,190 °C
14,CCOC(=O)c1cn(CC)c2ncnn2c1=O,129 to 131 °C
15,C/C(=C\CC1OC(=O)NC1=O)c1cccc(OCCc2nc(-c3ccccc3)oc2C)c1 (stereo not given),100 to 101 °C
16,Cc1cccc(-c2nc(=O)c3ccccc3s2)n1,170 °C
17,CC(=O)SCC1=C(CSC(C)=O)C(=O)C(CSC(C)=O)=C(CSC(C)=O)C1=O,133 to 135 °C
18,COc1cc(N=C(N)c2cccs2)ccc1N1CCN(C(=O)NCCCCC2CCSS2)CC1 (stereo not given),186 °C
19,CC(=O)NCC1CC(c2ccc(Br)cc2)=NO1 (stereo not given),198 to 199 °C
20,O=C1CCN(C(=S)Nc2ccc(Cl)cc2)N1c1ccccc1,136 to 139 °C
